Results published in patent US20210252032A1, “DRUGS FOR GRP78 CELL SURFACE TRANSLOCATION AND PAR-4 SECRETION” (University of Kentucky Research Foundation, priority 2020, published 2021).
“Also recorded” adds a separate entry of the source.

Assays:
[1] = system: LLC1-derived lung tumor nodules; details: CQ in conjunction with CZT, relative to CZT or CQ administered separately; cited from earlier work
[2] = system: epithelial BEAS2B cells; assay: GRP78 cell surface expression in normal BEAS2B cells (FIG. 1); type: cell-based
Source text: (§1) To maximize the apoptotic effect of secreted Par-4 on lung tumors, the second active agent is effective to elevate GRP78 on the surface of cancer cells and thereby complements the apoptotic action of secreted Par-4. […] Approximately 5% of patients with non-small cell lung cancer (NSCLC) have tumors that contain an inversion in chromosome 2 that juxtaposes the 5′ end of the echinoderm microtubule-associated protein-like 4 (EML4) gene with the 3′ end of the ALK gene. This juxtaposition results in the fusion oncogene called EML4-ALK. ALK+ tumors are highly sensitive to therapy with ALKtargeted inhibitors. […] On the other hand, phosphorylation of SRC at tyrosine 530 (Y530) by C-terminal SRC kinase (Csk) and Csk homologous kinase results in inactivation of SRC.

[3] = system: p53-deficient KP7B lung tumor cells; assay: GRP78 cell surface expression in KP7B lung tumor cells (FIG. 1); type: cell-based
Source text: as §1

[4] = system: cancer cells; assay: Cell surface expression of GRP78 in cancer cells (FIG. 1 legend); type: cell-based
[5] = system: lung cancer cells; details: previous studies (background); cited from earlier work
[6] = system: normal lung fibroblast HEL cells; assay: GRP78 cell surface expression in normal HEL cells (FIG. 1); type: cell-based
Source text: as §1

[7] = system: lung cancer cells; assay: GRP78 cell surface translocation in lung cancer cells (FIG. 2); type: cell-based; details: nanomolar concentrations
Source text: as §1

[8] = system: tyrosine-protein kinase SRC; assay: SRC activation (FIG. 3); type: cell-based; details: lung cancer cells
Source text: Dephosphorylation of Y530 by phosphatases results in autophosphorylation of SRC at Y419, leading to activation. SRC activation triggers a signaling cascade that prevents retrograde trafficking of proteins from the Golgi to the ER and promotes GRP78 translocation from the Golgi to the cell surface.

[9] = system: normal cells; assay: Par-4 secretion from normal cells; type: cell-based; details: levels relative to those achieved previously with chloroquine

Structure (SMILES): CCN(CC)CCCC(C)Nc1ccnc2cc(Cl)ccc12 (stereo not drawn) [CQ, chloroquine]
- inhibition of LLC1-derived lung tumor nodules [1]: significantly greater inhibition

Structure (SMILES): C[C@@H](Oc1cc(-c2cnn(C3CCNCC3)c2)cnc1N)c1c(Cl)ccc(F)c1Cl [CZT, Crizotinib]
- Par-4 receptor GRP78 on the cell surface [2]: not
- Par-4 receptor GRP78 on the cell surface [3]: elevated
- cell surface expression of GRP78 in cancer cells [4]: induces
- Par-4 receptor GRP78 levels on lung cancer cells [5]: inducer
- Par-4 receptor GRP78 on the cell surface [6]: not

Structure (SMILES): COCCn1c2c([n+](Cc3cnccn3)c1C)C(=O)c1ccccc1C2=O [YM155]
- GRP78 cell surface translocation [7]: induce cell surface expression of GRP78; also recorded: induced GRP78 cell surface translocation

Structure (SMILES): CCc1cc2c(cc1N1CCC(N3CCOCC3)CC1)C(C)(C)c1[nH]c3cc(C#N)ccc3c1C2=O [alectinib]
- activation of SRC [8]: cause the activation of SRC

Structure (SMILES): COc1cc(Nc2ncc3c(n2)-c2ccc(Cl)cc2C(c2c(F)cccc2OC)=NC3)ccc1C(=O)O [alisertib]
- GRP78 cell surface translocation [7]: induce cell surface expression of GRP78; also recorded: induced GRP78 cell surface translocation

Structure (SMILES): COc1cccc2c1C(=O)c1c(O)c3c(c(O)c1C2=O)C[C@@](O)(C(=O)CO)C[C@@H]3O[C@H]1C[C@H](N)[C@H](O)[C@H](C)O1 [doxorubicin]
- Par-4 secretion from normal cells [9]: comparable to, or higher than

Structure (SMILES): COc1cc([C@@H]2c3cc4c(cc3[C@@H](O[C@@H]3O[C@@H]5CO[C@@H](C)O[C@H]5[C@H](O)[C@H]3O)[C@H]3COC(=O)[C@H]23)OCO4)cc(OC)c1O [etoposide]
- Par-4 secretion from normal cells [9]: comparable to, or higher than

Structure (SMILES): CCc1c2c(nc3ccc(OC(=O)N4CCC(N5CCCCC5)CC4)cc13)-c1cc3c(c(=O)n1C2)COC(=O)[C@]3(O)CC [irinotecan]
- Par-4 secretion from normal cells [9]: comparable to, or higher than
